From article PMC11770821, “Pharmacokinetics and pharmacodynamics of an innovative psychedelic N,N-dimethyltryptamine/harmine formulation in healthy participants: a randomized controlled trial” (International Journal of Neuropsychopharmacology, 2025)

Assays:
clinical = conditions: male, human, plasma, other: intranasal (DMT), buccal (harmine)
Description: (§1) The study was conducted as a within-subject, double-blind, randomized placebo-controlled trial. Randomization was performed by an independent individual using a computer-generated random number sequence. All participants underwent 3 randomized drug treatments on separate study days, with an intervening washout period of at least 2 weeks: (1) DMT/HAR: harmine hydrochloride (HCl; 100 mg; buccal orodispersible tablet; ODT) plus DMT (as hemifumarate; 100 mg; intranasal: 10 mg every 15 minutes over 150 minutes), (2) HAR/PLA: harmine (100 mg, buccal ODT) plus placebo nasal spray (NaCl; at same dosing intervals), and (3) PLA/PLA: placebo buccal ODT plus placebo nasal spray. In all conditions, buccal tablets were premedicated for 30 minutes. Food or water intake was not allowed 2 hours before drug administration.
(§2) Thirty minutes following buccal premedication with harmine HCl (100 mg) or placebo, the intranasal repeated-intermittent administration of DMT or placebo was initiated. Volunteers received up to 100 mg DMT in 10 mg dosing steps each 15 minutes (2 × 2 puffs per nostril) over a period of 150 minutes (except for a 30-minute break between 60 and 90 minutes due to a behavioral task). […] Volunteers could adjust each dose (0, 5, 10 mg) based on tolerance, with encouragement to follow the regimen if no adverse effects (AEs) occurred. Thus, volunteers were given the chance to control the psychedelic strength of the experience to enhance safety and tolerability.
(§3) Blood samples were collected from the left or right antecubital vein at −30 (baseline), 0, 30, 60, 90, 120, 150, 180, 195, 210, 240, 270, and 300 minutes after first DMT/placebo administration for analysis of blood plasma levels of harmine, DMT, the 3 major DMT metabolites 3-IAA, DMT-N-oxide, and NMT and the major harmine metabolite harmol. While DMT administration was ongoing, blood drawing was always performed right before DMT administration (time point -1 minute). The venous catheter was connected to a 100 mm Heidelberger plastic tube extension to collect blood samples without disturbing the volunteers during their psychedelic experience. The intravenous line was kept patent with a slow drip (10 mL/h) of heparinized saline (1000 IU heparin in 0.9 g NaCl/dL; HEPARIN Bichsel; Bichsel AG). Blood samples were immediately centrifuged for 10 minutes at 2000 RCF. Then, plasma was transferred to Eppendorf tubes, shock-frosted in liquid nitrogen (~ −196 °C) and stored at −80 °C until assay.
(§4) The data were analyzed and visualized with R Studio version 2021.09.2 + 382.[36] PK-PD parameters were computed using the R-package PKNCA.[37] For Cmax, tmax, AUCs (area under the curves), and half-life calculations, non-compartmental analyses were performed.[38] […] Post hoc pairwise comparisons were calculated using paired Wilcoxon signed-rank tests. P-values were adjusted using the Benjamini-Hochberg multiple testing correction method. Pearson or Spearman correlations were performed (as appropriate according to Shapiro-Wilk tests) to analyze associations between DMT plasma levels and subjective effects.
(§5) For the sample preparation 200 µl of plasma were spiked with 50 µl internal standard (IS) mixture (40 ng/ml DMT-d6 and harmine-d3) and 50 µl methanol (MeOH). Proteins were precipitated by adding 400 µl of acetonitrile (ACN). The samples were shaken for 10 minutes and centrifuged for 5 min at 10‘000 rpm. 350 µl of the supernatant was transferred into an auto-sampler vial, evaporated to dryness under a gentle stream of nitrogen at room temperature and reconstituted in 100 µl eluent-mixture (98:2, v/v).

[1] = Plasma pharmacokinetics of DMT, harmine and their metabolites (non-compartmental analysis)
Description: as §1, §2, §3, §4, §5

Structure (SMILES) | AUC (clinical) | Cmax (clinical) | Tmax (clinical) | plasma levels after harmine administration ([1]; harmine-only (HAR) condition) | t1/2 ([1]; DMT + harmine condition, plasma elimination half-life, mean (SD)) | AUCinf ([1]; DMT + harmine condition, plasma, time zero to infinity, mean (SD))
O=C(O)Cc1c[nH]c2ccccc12 [3-IAA, indole-3-acetic acid] | 7580 ng·h/mL | 2910 ng/mL | 4.1 h | decreased | – | –
C[N+](C)([O-])CCc1c[nH]c2ccccc12 [DMT-N-oxide] | – | – | – | – | 1.2 (0.4) h | 69.2 (22.1) ng × h/mL
